Measurements as given in publication PMC5414976, “Reduction of reactive red 241 by oxygen insensitive azoreductase purified from a novel strain Staphylococcus KU898286” (PLoS ONE, 2017).

Tested on: T1, azoreductase
T1 construct: native enzyme purified from strain S1 cells (sonication, ammonium sulphate, Sephadex G-100); 29 kDa by SDS-PAGE
Experiment: dye decolourisation at […] nm, Lineweaver-Burk
Assay type: biochemical, Staphylococcus aureus

Compound	Km (0.5 mM RR241, NADH varied)	Km (constant NADH 1 mM (text; legend of Fig 4a says absence of NADH))
NC(=O)C1=CN([C@@H]2O[C@H](COP(=O)(O)OP(=O)(O)OC[C@H]3O[C@@H](n4cnc5c(N)ncnc54)[C@H](O)[C@@H]3O)[C@@H](O)[C@H]2O)C=CC1 [NADH]	1.02 mM	
O=S(=O)(O)OCCS(=O)(=O)c1ccc(Nc2nc(Cl)nc(Nc3cc(S(=O)(=O)O)cc4cc(S(=O)(=O)O)c(N=Nc5ccc6c(S(=O)(=O)O)cccc6c5S(=O)(=O)O)c(O)c34)n2)cc1 [RR241, reactive red 241]		1.54 mM
